Measured values reported in PubChem BioAssay AID651574 (The Scripps Research Institute Molecular Screening Center, 2012).
The source made the active and inactive calls. How the calls were made is not given here.

Tested on: Core protein (Hepatitis C virus)
Experiment: reduction of HCV RNA in infected cells – cell-based, fluorescence qPCR, two timepoints, counter-screen for HCV core dimerization inhibitor project, late-stage follow-up (AID 651574)
Conditions: viral RNA qPCR

Cc1ccc(Cc2c(C)nc3nc(SCC(=O)NCCN4CCOCC4)nn3c2C)cc1 showed an IC50 (timepoint 1) of 12 µM.

Work on Cc1ccc(Cc2c(CCc3ccccc3)nc3nc(SC(Cc4ccccc4)C(=O)NCCN4CCOCC4)nn3c2C)cc1 (configuration not stated) yielded an IC50 (timepoint 1) of 7.7 µM.

Cc1ccc(Cc2c(C)nc3nc(SCC(=O)NCCN4CCN(S(=O)(=O)c5ccccc5)CC4)nn3c2C)cc1 was tested, and the IC50 (timepoint 1) was 5.3 µM and the IC50 (timepoint 2) was 12.5 µM.

Cc1ccc(Cc2c(C)nc3nc(SCC(=O)NCCN4CCCN(S(=O)(=O)c5ccc(C)cc5)CC4)nn3c2C)cc1 showed an IC50 (timepoint 1) of 2.7 µM and an IC50 (timepoint 2) of 7.2 µM.

For Cc1ccc(Cc2c(C)nc3nc(SCC(=O)NCCN4CCN(Cc5ccc(F)cc5)CC4)nn3c2C)cc1, the IC50 (timepoint 1) was 0.099 µM.

For Cc1ccc(Cc2c(C)nc3nc(SCC(=O)NCCN4CCCN(S(C)(=O)=O)CC4)nn3c2C)cc1, the IC50 (timepoint 1) was 18.9 µM and the IC50 (timepoint 2) was 24.3 µM (inactive).

Cc1ccc(Cc2c(C)nc3nc(SCC(=O)NCCN4CCCN(S(=O)(=O)c5ccccc5)CC4)nn3c2C)cc1 gave an IC50 (timepoint 1) of 3.2 µM and an IC50 (timepoint 2) of 2.2 µM.

With Cc1ccc(Cc2c(C)nc3nc(SCC(=O)NCCN4CCNCC4)nn3c2C)cc1 the IC50 (timepoint 2) was 1.8 µM.

For Cc1ccc(Cc2c(C)nc3nc(SCC(=O)NCCN4CCN(CCc5ccccc5)CC4)nn3c2C)cc1, the IC50 (timepoint 1) was 3.07 µM.

With Cc1ccc(Cc2c(C)nc3nc(SCC(=O)NCCN4CCCCCC4)nn3c2C)cc1 the IC50 (timepoint 1) was 8.5 µM and the IC50 (timepoint 2) was 13.7 µM.

Compound Cc1ccc(Cc2c(C)nc3nc(SCC(=O)NCCCN4CCCCCC4)nn3c2C)cc1 has an IC50 (timepoint 1) of 6.7 µM and an IC50 (timepoint 2) of 12 µM.
